Counter-ions that a name gives are not always drawn.
Tested on: inflammatory pain
Test: Randall-Selitto test in rats (carrageenan-induced acute inflammation, mechanical nociceptive threshold)
Assay type: in vivo
Details: rat; for time point of peak effect: substance applied alone, A i.v., paracetamol i.p.
Experimental: The weight ratios of the components (a) and (b) that will lead to a supra-additive effect (synergistic effect) of the inventive pharmaceutical composition may be determined via the test of Randall and Selitto as described in Arch. Int. Pharmacodyn., 1957, 111: 409 to 419, which is a model for inflammatory pain. The respective part of the literature is hereby incorporated by reference and forms part of the present disclosure.
Acute inflammation is induced by an intraplantar injection of 0.1 ml of a carrageenan solution (0.5% in distilled water) into one hind paw. The mechanical nociceptive threshold is measured 4 hours after carrageenan injection using an Algesiometer (Ugo Basile, Italy). The device generates a mechanical force with a linear increase over time. The force is applied to the dorsal surface of the inflamed rat hind paw via a cone-shaped stylus with a rounded tip (2 mm tip diameter). The nociceptive threshold is defined as the force (in grams) at which the rat vocalises (cut-off force 250 g). […] The antinociceptive and antihyperalgesic activity of the tested substance is expressed as percentages of the maximal possible effect (% MPE). The group size is n=10.
The interactions studies presented herein were performed using equieffective doses of the two components, calculated from the ratio of the respective ED50 values of the components if administered alone.
Thus, the time point of ED50 calculation of the combination corresponds to the timepoint of the peak effect of the respective compound.

Structure (SMILES) | ED50 (iv, 0.25 h, i.v., 15 min p. appl. (peak effect), % MPE, n=10, read-out: ED50 of A applied alone) [mg/kg] | time point of peak effect [min]
COc1cccc([C@@]2(O)C[C@H](O)CC[C@@H]2CN(C)C)c1 (racemic) [A, (1RS,3RS,6RS)-6-dimethylaminomethyl-1-(3-methoxy-phenyl)-cyclohexane-1,3-diol hydrochloride] | 15.8 | 15
CC(=O)Nc1ccc(O)cc1 [Paracetamol] | – | 120

From US20100069501A1, “Pharmaceutical Composition Comprising 6-Dimethylaminomethyl-1-(3-methoxy-phenyl)-cyclohexane-1,3-diol and Paracetamol” (GRUENENTHAL GmbH, priority 2008, published 2010)
